Results: PubChem BioAssay (NCI)
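Values below derive from 48-hour exposures of cells grown in 96-well plates, with endpoints linearly interpolated between the two concentrations bracketing the appropriate inhibition level. TGI: total growth inhibition.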

Tests used:
Assay in all cases: DTP human tumour cell line panel, 48 h
SNB-75 CNS = test system: SNB-75 CNS
TK-10 renal = test system: TK-10 renal
A549 NSCLC = test system: A549 NSCLC
SK-MEL-28 melanoma = test system: SK-MEL-28 melanoma
K-562 leukemia = test system: K-562 leukemia
NCI-H522 lung = test system: NCI-H522 lung
KM12 colon = test system: KM12 colon
HCC-2998 colon = test system: HCC-2998 colon
SK-MEL-5 melanoma = test system: SK-MEL-5 melanoma
M14 melanoma = test system: M14 melanoma
OVCAR-8 ovarian = test system: OVCAR-8 ovarian
SK-OV-3 ovarian = test system: SK-OV-3 ovarian
NCI-H460 lung = test system: NCI-H460 lung
MALME-3M melanoma = test system: MALME-3M melanoma
SNB-19 CNS = test system: SNB-19 CNS
HCT-116 colon = test system: HCT-116 colon
NCI/ADR-RES ovarian = test system: NCI/ADR-RES ovarian
T-47D breast = test system: T-47D breast
PC-3 prostate = test system: PC-3 prostate
BT-549 breast = test system: BT-549 breast

Compound | TGI (SNB-75 CNS) [µM] | TGI (TK-10 renal) [µM] | TGI (A549 NSCLC) [µM] | TGI (SK-MEL-28 melanoma) [µM] | TGI (K-562 leukemia) [µM] | TGI (NCI-H522 lung) [µM] | TGI (KM12 colon) [µM] | TGI (HCC-2998 colon) [µM] | TGI (SK-MEL-5 melanoma) [µM] | TGI (M14 melanoma) [µM] | TGI (OVCAR-8 ovarian) [µM] | TGI (SK-OV-3 ovarian) [µM] | TGI (NCI-H460 lung) [µM] | TGI (MALME-3M melanoma) [µM] | TGI (SNB-19 CNS) [µM] | TGI (HCT-116 colon) [µM] | TGI (NCI/ADR-RES ovarian) [µM] | TGI (T-47D breast) [µM] | TGI (PC-3 prostate) [µM] | TGI (BT-549 breast) [µM]
CCOC(=O)CCC(NC(=O)c1ccc(N=Cc2nc3ccccc3nc2-c2ccccc2)cc1)C(=O)OCC (centres undefined) | > 100 | > 100 | > 100 | > 100 | > 100 | > 100 | > 100 | > 100 | > 100 | > 100 | > 100 | > 100 | > 100 | > 100 | > 100 | > 100 |  |  |  | 
Cc1cccc(/C=N\NC(=S)N2CCCCC2)n1 | 9.32 |  | > 100 | > 100 | > 100 | > 100 | > 100 | > 100 | 0.187 | 0.406 | 0.582 | > 100 | 0.788 | > 100 | > 100 | 0.125 | 0.43 | > 100 | > 100 | 
CCCCCCSCC/C(C)=N\OC | > 100 | > 100 | > 100 | > 100 | > 100 | > 100 | > 100 | > 100 | > 100 | > 100 | > 100 | > 100 | > 100 | > 100 | > 100 | > 100 | > 100 |  | > 100 | > 100
C[C@@]1(Cc2ccccc2)C(=O)N2[C@@H](CO)C(c3ccccc3)O[C@]2(C)c2ccccc21 (some centres undefined) | > 100 | > 100 | > 100 | > 100 | > 100 | > 100 | > 100 |  | > 100 | > 100 | > 100 | > 100 |  |  | > 100 | > 100 |  |  |  | 
CCc1[nH]c(=O)c2oc3cc4ccccc4cc3c2c1C(=O)O | > 10 | > 10 | > 10 |  |  | > 10 | > 10 | > 10 |  | > 10 | > 10 |  | > 10 | > 10 | > 10 | > 10 | > 10 |  | > 10 | > 10
CCCCNC(=NCc1ccccc1)NC#N | > 100 | > 100 | > 100 | > 100 |  | > 100 | > 100 | > 100 | > 100 | > 100 | > 100 | > 100 | > 100 | > 100 | > 100 | > 100 |  |  |  | 
O=C(O)C(O)C(O)C(O)C(O)C(=O)O (centres undefined) | > 100 |  | > 100 | > 100 | > 100 | > 100 | > 100 | > 100 | > 100 | > 100 | > 100 | > 100 | > 100 | > 100 | > 100 | > 100 | > 100 | > 100 | > 100 | 
